# Experimental data: US20240024403A1, “Compositions and Methods for Managing Weight” (Unigen, Inc., priority 2012, published 2024)
# “And” between values parts separate entries of the source, which are not always exact repeats. Equal values may be shown once. “Also recorded” adds a separate entry of the source.
# Columns and labels:
# [1] = system: leptin; assay: Plasma leptin level in DIO mice (ELISA); format: in vivo
# Procedure: (§1) Obese mice were treated with various three component compositions to test the anti-obesity and appetite effects of such compositions. Three component Composition 1 (Magnolia:Morus:Yerba Mate) produced according to the Example 38, three component Composition 2 (Magnolia:Morus:Mutamba) produced according to the Example 42, three component Composition 3 (Morus: Rosemary:Yerba Mate) produced according to the Example 39, and three component Composition 9 (Morus:Rosemary:Areca) produced according to the Example 41, were each separately administrated orally to DIO mice as described in the Example 48. The high fat diet (HFD) mice were divided into multiple treatment groups with a total of 10 animals per group. The mice were treated with one of the following: Composition 1 (1300 mg/kg/day), Composition 2 (1300 mg/kg/day), Composition 3 (1700 mg/kg/day), or Composition 9 (1700 mg/kg/day). Control groups included a normal diet group given vehicle only (ND, negative control), a high fat diet group given vehicle only (HFD, negative control), an orlistat group (ORI, 40 mg/kg, 2 times/day, positive control), and a sibutramine group (10 mg/kg, 1 time/day, positive control). Body weight and feed intake were measured daily for 2 weeks after treatment and then twice a week until the end of the 7 week study. At week 2 and week 7 after treatment, mice were fasted for 16 hours and then five animals were examined to measure plasma concentrations of leptin and ghrelin. Leptin and ghrelin levels were measured by using commercial ELISA kits specific for leptin or ghrelin (Millipore Co., Billerica, MA) according to the manufacturer's instructions. Measurements were taken using a microplate reader (Victor™ X3, PerkinElmer Inc., USA) and analyzed with PerkinElmer 2030 workstation computer software.
# [2] = system: ghrelin; assay: Plasma active ghrelin level in DIO mice (ELISA); format: in vivo
# Procedure: as §1
# [3] = High fat diet induced obesity (DIO) rat model; format: in vivo, Spraue-Dawley rats; parameters: NASH (sum) / NSAH (sum): scale not given here; Epididymal fatty tissue weight / Retroperitoneal fatty tissue weight / Total Fat / Epididymal Fat, absolute weight / Retroperitoneal Fat, absolute weight: unit not given here
# Procedure: Male Spraue-Dawley rats, age 4-6 weeks (OrientBio, Inc.; Seongnam, Korea) were housed individually in Polycarbonate cages in a room with a 12 hr:12 hr light-dark cycle and an ambient temperature of 24° C. All the rats were fed a commercial chow diet for 1 week after arrival in the animal facility. Rats were then divided into normal and obesity groups and fed with normal diet (ND) and high fat diets (HFD) respectively. The HFD group was divided into multiple treatment groups: a high fat diet vehicle group (HFD), an orlistat (purchased as OTC drug Alli®) positive control treatment group (ORI, 80 mg/kg of animal weight, 2 times/day). In some examples, sibutramine was used as a positive control (SIB, 3 mg/kg for rat studies and […] for mice studies).
# Body weight was measured once or twice per week and feed intake was measured twice per week. Body weight gain was determined for each study group by measurement of the body weight difference for each study group between each successive week of the study. At the end of the experimental period, following a 12-h fasting period, the animals were anesthetized with ether, and blood was drawn from the abdominal vein. Liver and kidney and adipose tissues (epididymal, retroperitoneal, perirenal adipose tissues) were removed from each animal, rinsed with physiological saline, and weighted. Serum concentrations of glucose, total cholesterol and LDL-cholesterol were determined using automatic analyzer (INTEGRA 400, Roche, Germany). Statistical significance of test results was performed by Student's t-test.
# [4] = system: CCK peptide; assay: CCK peptide levels in DIO mice (CCK ELISA); format: in vivo; settings: mice on high fat diet; after 7 weeks of administering; % ± SD
# Procedure: Therefore, the effect on CCK peptide levels in mice from treatment with Composition 2 (Magnolia:Morus:Mutamba), produced according to the Example 42, or Composition 3 (Morus:Rosemary:Yerba Mate), produced according to the Example 39, was examined to determine the extent to which weight gain and/or appetite were affected through this peptide hormone pathway. Briefly, CCK peptide levels were measured after 7 weeks of administering Compositions […] and 3 to mice on a high fat diet as described in Example 48. Negative controls include mice on a normal diet (NC) and mice on a high fat diet (HFD), each group administered vehicle only. The positive controls were orlistat and sibutrimine. CCK levels were detected using a CCK ELISA assay kit according to the manufacturer's instructions (Abnova, Taipei City, Tiawan). Measurements were performed using microplate reader Victor™ X3 (PerkinElmer Inc., Waltham, MA) and computer software on the PerkinElmer 2030 workstation.
# [5] = DIO mice plasma, 2-week treatment
# [6] = DIO mice plasma, 7-week treatment
# [7] = DIO rats, ORI 80 mg/kg, 55 day study, mean
# [8] = DIO rats, blood at end of study, ORI 80 mg/kg, mean
# [9] = DIO rats, liver pathology, ORI 80 mg/kg, mean
# [10] = DIO rats, liver pathology score, ORI group, mean
compound,measurement,setting,value
"CCCCCCCCCCC[C@@H](C[C@@H]1OC(=O)[C@H]1CCCCCC)OC(=O)[C@H](CC(C)C)NC=O [ORI, orlistat]",Leptin (ng/ml) 2-week,[1]; [5],11.6 ± 0.06 ng/mL
same,Leptin (ng/ml) 7-week,[1]; [6],19.0 ± 0.24 ng/mL
same,plasma leptin level vs HFD group,"[1]; week 2 and week 7, Composition 2 1300 mg/kg/day, orlistat 40 mg/kg 2 times/day, sibutramine 10 mg/kg 1 time/day",significantly reduced leptin level after 2 weeks of treatment
same,Active Ghrelin (pg/ml) 2-week,[2]; [5],1316.4 pg/mL
same,Active Ghrelin (pg/ml) 7-week,[2]; [6],1353.7 pg/mL
same,active ghrelin level vs HFD group,"[2]; week 2 and week 7, orlistat 40 mg/kg 2 times/day, sibutramine 10 mg/kg 1 time/day",no effect on active ghrelin levels at either week 2 or week 7
same,Body Weight Gain,[3]; [7],1.22 g/day
same,Food Intake,[3]; [7],25.71 g/day
same,Food Efficiency Ratio (FER),"[3]; DIO rats, ORI 80 mg/kg, 55 day study, body weight gain/food intake",0.05
same,Weight Gain,"[3]; DIO rats, ORI 80 mg/kg, day 3, mean",2.80
same,Weight Gain,"[3]; DIO rats, ORI 80 mg/kg, day 7, mean",1.04
same,Weight Gain,"[3]; DIO rats, ORI 80 mg/kg, day 10, mean",0.82
same,Weight Gain,"[3]; DIO rats, ORI 80 mg/kg, day 14, mean",3.40
same,Weight Gain,"[3]; DIO rats, ORI 80 mg/kg, day 17, mean",3.34
same,Weight Gain,"[3]; DIO rats, ORI 80 mg/kg, day 21, mean",15.89
same,Weight Gain,"[3]; DIO rats, ORI 80 mg/kg, day 24, mean",19.89
same,Weight Gain,"[3]; DIO rats, ORI 80 mg/kg, day 28, mean",28.19
same,Weight Gain,"[3]; DIO rats, ORI 80 mg/kg, day 31, mean",33.33
same,Weight Gain,"[3]; DIO rats, ORI 80 mg/kg, day 35, mean",38.43
same,Weight Gain,"[3]; DIO rats, ORI 80 mg/kg, day 37, mean",43.95
same,Weight Gain,"[3]; DIO rats, ORI 80 mg/kg, day 42, mean",49.06
same,Weight Gain,"[3]; DIO rats, ORI 80 mg/kg, day 45, mean",59.88
same,Weight Gain,"[3]; DIO rats, ORI 80 mg/kg, day 49, mean",63.68
same,Weight Gain,"[3]; DIO rats, ORI 80 mg/kg, day 52, mean",71.12
same,Weight Gain,"[3]; DIO rats, ORI 80 mg/kg, day 55, mean",68.11
same,Epididymal fatty tissue weight,"[3]; DIO rats, ORI 80 mg/kg, mean",17.87
same,Perirenal fatty tissue weight,"[3]; DIO rats, ORI 80 mg/kg, mean",6.11
same,Retroperitoneal fatty tissue weight,"[3]; DIO rats, ORI 80 mg/kg, mean",19.21
same,Total Fat,"[3]; DIO rats, ORI 80 mg/kg, sum of epididymal, retroperitoneal and perirenal fat",43.19
same,ALP,[3]; [8],480.16 U/L
same,ALT,[3]; [8],35.65 U/L
same,AST,[3]; [8],146.39 U/L
same,LDL-C,[3]; [8],10.63 mg/dL
same,T-chol,[3]; [8],110.13 mg/dL
same,TG,[3]; [8],216.38 mg/dL
same,Hepatocellular ballooning (0-2),[3]; [9],0.675 and 0.625
same,Lobular Inflammation (0-3),[3]; [9],1.500
same,NASH (sum),[3]; [9],2.875
same,Steatosis (0-3),[3]; [9],0.750
same,"Epididymal Fat, absolute weight","[3]; DIO rats, ORI group, mean",17.87
same,FER (Food efficiency ratio),"[3]; DIO rats, ORI group, mean",0.05
same,Food Intake,"[3]; DIO rats, ORI group, mean",25.71 g/day
same,LDL-C,"[3]; DIO rats, ORI group, mean",10.63 mg/dL
same,"Perirenal Fat, absolute weight","[3]; DIO rats, ORI group, mean",6.11
same,"Retroperitoneal Fat, absolute weight","[3]; DIO rats, ORI group, mean",19.21
same,T-chol,"[3]; DIO rats, ORI group, mean",110.13 mg/dL
same,TG,"[3]; DIO rats, ORI group, mean",216.38 mg/dL
same,Total Fat,"[3]; DIO rats, ORI group, mean",43.19
same,Weight Gain,"[3]; DIO rats, ORI group, mean",1.22 g/day
same,Weight Gain,"[3]; DIO rats, day 3, ORI group, mean",2.80
same,Weight Gain,"[3]; DIO rats, day 7, ORI group, mean",1.04
same,Weight Gain,"[3]; DIO rats, day 10, ORI group, mean",0.82
same,Weight Gain,"[3]; DIO rats, day 14, ORI group, mean",3.40
same,Weight Gain,"[3]; DIO rats, day 17, ORI group, mean",3.34
same,Weight Gain,"[3]; DIO rats, day 21, ORI group, mean",15.89
same,Weight Gain,"[3]; DIO rats, day 24, ORI group, mean",19.89
same,Weight Gain,"[3]; DIO rats, day 28, ORI group, mean",28.19
same,Weight Gain,"[3]; DIO rats, day 31, ORI group, mean",33.33
same,Weight Gain,"[3]; DIO rats, day 35, ORI group, mean",38.43
same,Weight Gain,"[3]; DIO rats, day 37, ORI group, mean",43.95
same,Weight Gain,"[3]; DIO rats, day 42, ORI group, mean",49.06
same,Weight Gain,"[3]; DIO rats, day 45, ORI group, mean",59.88
same,Weight Gain,"[3]; DIO rats, day 49, ORI group, mean",63.68
same,Weight Gain,"[3]; DIO rats, day 52, ORI group, mean",71.12
same,Weight Gain,"[3]; DIO rats, day 55, ORI group, mean",68.11
same,Hepatocellular ballooning (0-2),[3]; [10],0.625
same,Lobular Inflammation (0-3),[3]; [10],1.500
same,NSAH (sum),[3]; [10],2.875
same,Steatosis (0-3),[3]; [10],0.750
same,blood biochemistry parameters vs HFD group,"[3]; orlistat 80 mg/kg, 2 times/day",no statistically significant decreases in any of the measured blood components; also recorded: did not show any statistically significant decreases in any of the measured blood chemistry components
same,body weight gain vs HFD group,"[3]; orlistat 80 mg/kg, 2 times/day",statistically significant decreases in body weight gain on day 7 through to day 55
same,liver pathology (NASH score) vs HFD group,"[3]; orlistat 80 mg/kg, 2 times/day","statistically significant decreases in Steatosis, Lobular Inflammation, Hepatocellular ballooning and NASH score"
same,organ and fat pad weights vs HFD group,"[3]; orlistat 80 mg/kg, 2 times/day","statistically significant decreases in all categories of fat measurement; also recorded: statistically significant decreases in Epididymal Fat, Retroperitoneal Fat, Perirenal Fat and Total Fat"
same,"weight gain per day, food intake per day, food efficiency ratio (FER) vs HFD group","[3]; orlistat 80 mg/kg, 2 times/day","statistically lower values than the HFD group for average Body Weight Gain per day, average Food Intake per day and Food Efficiency Ratio"
same,% CCK binding,[4],72.5 ± 3.4%
